From patent US5786348A, “Methods for preparation and use of 1α,24(S)-dihydroxy vitamin D2” (priority 1995, dated 1998)

Tests used:
[1] = Hypocalcemia and metabolic bone disease in chronic hemodialysis patients; type: in vivo, human; settings: greater than 3.0 μg/day, twelve months
Protocol: A twelve-month, double-blind, placebo-controlled clinical trial is conducted with thirty men and women with renal disease who are undergoing chronic hemodialysis. […] Efficacy is evaluated by pre- and post-treatment comparisons of the two patient groups with regard to (a) direct measurements of intestinal calcium absorption, (b) total body calcium retention, (c) radial and spinal bone mineral density, or (d) determinations of serum calcium. Safety is evaluated by regular monitoring of serum calcium.

[2] = tested on: human cancer cell lines BCA-1 or ZR-75-1 (breast) and COL-1 (colon); experiment: Antiproliferative activity in human cancer cell lines (thymidine incorporation); type: cell-based; settings: dose-response in breast and colon cancer cell lines
Protocol: Dose-response studies are conducted with 1α,24(S)-(OH)2 D2 in a battery of human cancer cell lines. These cell lines include, but are not limited to, the following: BCA-1 or ZR-75-1 (breast) and COL-1 (colon), as described by Shieh, H. L. et al. Chem. Biol. Interact., vol. 81, pp. 35-55 (1982). In this study, appropriate solvents are used as negative controls.

[3] = Prophylaxis of postmenopausal bone loss in healthy postmenopausal women; type: in vivo, human
Protocol: A clinical study is conducted with healthy postmenopausal women having ages between 55 and 60 years. The study involves up to 80 patients randomly divided into two treatment groups, and continues for 24 to 36 months. One treatment group receives a constant dosage of 1α,24(S)-dihydroxy vitamin D2 (u.i.d.; a dose level at or above 1.0 μg/day) and the other receives a matching placebo. The study is conducted as indicated in Example 12 above.

HL-60 promyelocytes = experiment: HL-60 cell differentiation assay; type: cell-based; settings: dose-response; acid esterase, NBT reduction, thymidine incorporation
Protocol: A dose-response study is conducted with 1α,24(S)-(OH)2 D2 in the HL-60 cell differentiation assay as described by DeLuca and Ostrom (DeLuca, H. F. and ostrem, V. K., Prog. Clin. Biol. Res., vol. 259, pp. 41-55 (1988)). In this study, 1α,25-(OH)2 D3 is used as a positive control and appropriate solvents are used as negative controls. The following variables are evaluated: nonspecific acid esterase activity, nitroblue tetrazolium (NBT) reduction, and thymidine incorporation.

[4] = Dermatological testing: topical ointment in dermatitis patients; type: in vivo, human; settings: ointment 10 μg per gram, twice daily, four to six weeks
Protocol: Compositions containing 1α,24(S)-dihydroxy vitamin D2 are evaluated for therapeutic efficacy of the composition in the topical treatment of dermatitis (contact and ectopic). The composition evaluated is an ointment containing 10 μg of 1α,24-dihydroxy vitamin D2 per gram of ointment in a petrolatum-almond oil base. […] The patients are treated in an out-patient clinic. They are instructed to use the preparation two times a day.
The ointment is as far as possible applied to a single lesion, or to an area of the disease. The ointment and its container are weighed before the treatment starts and returned with any unused contents for reweighing at the end of the treatment.
The area of the lesion treated is estimated and recorded, and the lesion is photographed as required, together with suitable "control" lesions. The latter are preferably lesions of similar size and stage of development, either in the vicinity of the treated lesion or symmetrically contralateral. Relevant details of the photographic procedure are recorded so as to be reproduced when the lesions are next photographed (distance, aperture, angle, background, etc.). The ointment is applied twice daily and preferably left uncovered. The "control" lesions are left untreated, but if this is not possible, the treatment used on them is noted. […]

Human keratinocytes = experiment: Epidermal cell differentiation and proliferation testing; type: cell-based; settings: 0.05 to 5 μg/ml; against ethanol control cultures
Protocol: Human keratinocytes are cultured according to known modifications of the system originally described by Rheinwald and Green (Cell, vol. 6, p. 331 (1975)). The 1α,24(S)-dihydroxy vitamin D2, dissolved in ethanol, is added to cells to yield a variety of concentrations between 0.05 and 5 μg/ml with the ethanol concentration not to exceed 0.5% v/v. Control cultures are supplemented with ethanol at a final concentration of 0.5% v/v.
Differentiation and proliferation of epidermal cells in culture is examined by:
1. quantitation of cornified envelopes;
2. quantitation of cell density of cells attached to disks;
3. monitoring transglutaminase activity; or
4. monitoring DNA synthesis by incorporation of ^3 H-thymidine.

[5] = Dose ranging study in postmenopausal osteoporotic women; type: in vivo, human; settings: oral 0.5 to 8.0 μg/day, rising weekly over five weeks
Protocol: Twenty postmenopausal osteoporotic women are enrolled in an open label study.
On admission to the study, all patients receive instruction on selecting a daily diet containing 400 to 600 mg of calcium. Compliance to this diet is verified at weekly intervals by 24-hour food records and by interviews with each patient.
All patients complete a one-week baseline period, a five-week treatment period, and a one-week post-treatment observation period. During the treatment period, patients orally self-administer 1α,24(S)-dihydroxyvitamin D2 at an initial dose of 0.5 μg/day for the first week, and at successively higher doses of 1.0, 2.0, 4.0, and 8.0 μg/day in each of the following four weeks. All doses are administered before breakfast.
Blood and urine chemistries are monitored on a weekly basis throughout the study. Key blood chemistries include fasting serum levels of calcium, phosphorus, osteocalcin, creatinine, and blood urea nitrogen. Key urine chemistries include 24-hour excretion of calcium, phosphorus, and creatinine.

Question: With `C=C1/C(=C\C=C2/CCC[C@]3(C)[C@@H]([C@H](C)/C=C/[C@@](C)(O)C(C)C)CC[C@@H]23)C[C@@H](O)C[C@@H]1O` [1α,24(S)-(OH)2 D2, 1α,24(S)-dihydroxy vitamin D2] as the compound, how does the Incidence of hypercalcemia [1] read?
Answer: insignificant incidence

Question: What about the “Intestinal calcium absorption (double-isotope technique)” value [1] of the same compound?
Answer: significantly increases

Question: What about the “Radial and spinal bone densities relative to baseline” value [1] of the same compound?
Answer: stable

Question: And the Serum calcium levels [1]?
Answer: normalized

Question: And the “Total body calcium relative to baseline” value [1]?
Answer: stable values

Question: What about the “Antiproliferative activity (inhibition of thymidine incorporation)” value [2] of the same compound?
Answer: potent (and reversible) antiproliferative activity

Question: And the “Losses in total body calcium, radial or spinal bone densities relative to baseline” value ([3]; at or above 1.0 μg/day, 24 to 36 months)?
Answer: reduced losses

Question: And the Monitored safety parameters ([3]; long-term administration at or above 1.0 μg/day)?
Answer: confirm the safety

Question: And the “Promotion of differentiation of HL-60 promyelocytes to monocytes” value (HL-60 promyelocytes)?
Answer: potent activity

Question: What about the Incidence of hypercalcemia [4] of the same compound?
Answer: insignificant incidence

Question: And the “Lesion severity scores (erythema, scaling, thickness; 0 to 3)” value ([4]; against control lesions)?
Answer: lower scores than the control lesions

Question: And the “Cell density of attached cells” value (Human keratinocytes)?
Answer: fewer attached cells

Question: What about the Cornified envelopes (Human keratinocytes) of the same compound?
Answer: more cornified envelopes

Question: And the “DNA synthesis (3H-thymidine incorporation)” value (Human keratinocytes)?
Answer: lower DNA synthesis

Question: What about the Transglutaminase activity (Human keratinocytes) of the same compound?
Answer: higher transglutaminase activity

Question: What about the “24-hour urinary calcium levels” value [5] of the same compound?
Answer: modest increases

Question: And the “Routinely monitored serum parameters” value [5]?
Answer: no effect

Question: And the Serum osteocalcin levels [5]?
Answer: increases
